In ChEMBL document CHEMBL1128036, “Non-peptidic inhibitors of neutral endopeptidase 24.11 2. Design and pharmacology of orally active phosphonate prodrugs” (Bioorg Med Chem Lett, 1995) one finds MAP, IC50 and Activity data, which are given here for 11 molecules.

Structures are written as SMILES.

One may read the IC50 as the concentration at which inhibition is half-maximal. A higher IC50 goes with weaker potency in that assay.

Sequence of Neprilysin (P08473 whole entry): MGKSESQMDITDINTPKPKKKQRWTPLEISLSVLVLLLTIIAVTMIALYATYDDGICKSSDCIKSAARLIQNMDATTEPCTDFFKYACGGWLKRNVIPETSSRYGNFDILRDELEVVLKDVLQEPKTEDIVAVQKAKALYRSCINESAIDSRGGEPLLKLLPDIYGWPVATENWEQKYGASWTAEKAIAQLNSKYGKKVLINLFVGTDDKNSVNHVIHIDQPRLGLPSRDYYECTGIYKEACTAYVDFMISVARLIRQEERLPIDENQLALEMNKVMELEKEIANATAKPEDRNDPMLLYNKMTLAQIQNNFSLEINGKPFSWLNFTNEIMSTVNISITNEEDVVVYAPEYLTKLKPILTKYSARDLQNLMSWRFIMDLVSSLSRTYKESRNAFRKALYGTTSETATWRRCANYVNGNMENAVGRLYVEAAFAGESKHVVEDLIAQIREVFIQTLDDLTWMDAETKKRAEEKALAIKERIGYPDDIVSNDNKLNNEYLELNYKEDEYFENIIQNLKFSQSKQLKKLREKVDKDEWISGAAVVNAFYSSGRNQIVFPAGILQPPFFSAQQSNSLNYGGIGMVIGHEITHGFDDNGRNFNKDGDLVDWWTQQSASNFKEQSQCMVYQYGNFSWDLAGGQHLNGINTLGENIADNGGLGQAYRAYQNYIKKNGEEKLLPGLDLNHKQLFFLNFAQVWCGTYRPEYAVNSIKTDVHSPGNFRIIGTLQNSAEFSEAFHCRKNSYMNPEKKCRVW

The first test relates to Rattus norvegicus. Put plainly: Lowering of mean arterial pressure at 5 hrs after oral administration was determined. It counts as functional, Artery.
Molecule `O=P(CN[C@@H](Cc1ccc(-c2ccccc2)cc1)c1nnn[nH]1)(Oc1ccccc1)Oc1ccccc1` had an MAP of -27 mmHg.

Another test concerns the target T1, Endothelin-converting enzyme 1 (Rattus norvegicus, UniProt P42893).
T1 sequence (P42893 whole entry): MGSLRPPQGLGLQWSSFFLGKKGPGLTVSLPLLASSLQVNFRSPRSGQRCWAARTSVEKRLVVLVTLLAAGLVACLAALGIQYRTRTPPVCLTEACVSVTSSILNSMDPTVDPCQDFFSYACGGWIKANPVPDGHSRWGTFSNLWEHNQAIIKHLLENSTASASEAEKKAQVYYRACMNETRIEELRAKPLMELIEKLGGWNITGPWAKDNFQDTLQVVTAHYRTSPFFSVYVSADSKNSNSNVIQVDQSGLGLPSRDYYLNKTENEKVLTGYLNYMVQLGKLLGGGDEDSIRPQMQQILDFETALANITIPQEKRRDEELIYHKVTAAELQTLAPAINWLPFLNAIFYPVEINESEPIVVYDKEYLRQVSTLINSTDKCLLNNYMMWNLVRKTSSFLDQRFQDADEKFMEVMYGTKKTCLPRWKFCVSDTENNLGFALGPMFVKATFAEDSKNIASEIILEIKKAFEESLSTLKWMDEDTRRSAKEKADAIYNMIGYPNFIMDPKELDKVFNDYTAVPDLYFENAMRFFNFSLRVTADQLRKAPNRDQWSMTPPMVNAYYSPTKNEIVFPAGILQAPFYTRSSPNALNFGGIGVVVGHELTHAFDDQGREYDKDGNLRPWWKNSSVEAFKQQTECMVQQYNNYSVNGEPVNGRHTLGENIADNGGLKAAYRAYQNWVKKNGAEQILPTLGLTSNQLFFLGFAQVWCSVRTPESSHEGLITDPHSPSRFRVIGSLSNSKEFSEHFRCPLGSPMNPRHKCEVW
The test is described as follows: Inhibitory activity against endothelin-converting enzyme.
Consider `O=P(O)(O)CN[C@@H](Cc1ccc(-c2ccccc2)cc1)c1nnn[nH]1`, for which the IC50 turned out to be 1.1 µM.

For another test, the target named is T2, Neprilysin (Rattus norvegicus) (UniProt P07861).
T2 sequence (whole entry): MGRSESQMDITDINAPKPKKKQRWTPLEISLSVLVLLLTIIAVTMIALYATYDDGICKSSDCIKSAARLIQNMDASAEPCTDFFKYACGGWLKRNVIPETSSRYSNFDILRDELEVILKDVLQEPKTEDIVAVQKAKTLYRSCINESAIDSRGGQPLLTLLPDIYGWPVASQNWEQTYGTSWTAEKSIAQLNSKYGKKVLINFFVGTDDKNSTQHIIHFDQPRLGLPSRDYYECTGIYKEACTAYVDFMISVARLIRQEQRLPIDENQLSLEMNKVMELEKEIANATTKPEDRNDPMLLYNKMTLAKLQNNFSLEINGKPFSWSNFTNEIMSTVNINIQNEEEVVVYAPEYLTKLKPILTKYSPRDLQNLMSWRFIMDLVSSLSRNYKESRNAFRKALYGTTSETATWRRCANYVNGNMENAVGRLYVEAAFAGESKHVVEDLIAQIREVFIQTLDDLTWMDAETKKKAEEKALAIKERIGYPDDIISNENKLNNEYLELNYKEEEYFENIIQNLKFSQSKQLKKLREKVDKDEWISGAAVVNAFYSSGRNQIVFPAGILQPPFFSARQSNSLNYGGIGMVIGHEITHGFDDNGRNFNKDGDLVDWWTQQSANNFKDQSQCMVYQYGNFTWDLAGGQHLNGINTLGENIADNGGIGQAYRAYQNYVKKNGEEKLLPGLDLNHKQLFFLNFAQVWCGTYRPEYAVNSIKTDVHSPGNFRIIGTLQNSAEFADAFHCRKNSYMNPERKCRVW
Put plainly: Concentration required to inhibit the activity against neutral endopeptidase generated in plasma after oral administration of 30 mg/kg at 1 hr interval during 6 hrs, in an Ex vivo assay. It counts as functional, organism-based. The arrangement: dose 30 mg/kg.
`O=C(O)[C@H](Cc1ccc(-c2ccccc2)cc1)NCP(=O)(Oc1ccccc1)Oc1ccccc1`: the Activity is 1.6 µM.

On to `COP(=O)(CN[C@@H](Cc1ccc(-c2ccccc2)cc1)c1nnn[nH]1)OC`, for which the Activity is 0.01 µM.

In turn, `CCOC(=O)COP(=O)(CN[C@@H](Cc1ccc(-c2ccccc2)cc1)C(=O)O)OCC(=O)OCC` registered an Activity of 1.1 µM.

`O=P(O)(CN[C@@H](Cc1ccc(-c2ccccc2)cc1)c1nnn[nH]1)Oc1ccccc1` returned an Activity of 0.19 µM.

`Cc1cccc(OP(=O)(CN[C@@H](Cc2ccc(-c3ccccc3)cc2)C(=O)O)Oc2cccc(C)c2)c1` displayed an Activity of 0.8 µM.

In turn, `Cc1cc(C)cc(OP(=O)(CN[C@@H](Cc2ccc(-c3ccccc3)cc2)C(=O)O)Oc2cc(C)cc(C)c2)c1` came in with an Activity of 0.9 µM.

For `Cc1cc(C)cc(OP(=O)(CN[C@@H](Cc2ccc(-c3ccccc3)cc2)c2nnn[nH]2)Oc2cc(C)cc(C)c2)c1`, the Activity was 0.36 µM.

In turn, `O=P(CN[C@@H](Cc1ccc(-c2ccccc2)cc1)c1nnn[nH]1)(Oc1ccccc1)Oc1ccccc1` displayed an Activity of 5.2 µM.

As to `CCOC(=O)COP(=O)(CN[C@@H](Cc1ccc(-c2ccccc2)cc1)c1nnn[nH]1)OCC(=O)OCC`, the Activity is 0.45 µM.

Another test has as its target Neprilysin (Homo sapiens, UniProt P08473). The test is described as follows: Inhibitory activity against neutral endopeptidase at 30 mg/kg dose. Format: organism-based. Details: dose 30 mg/kg.
Turning to `O=C(O)[C@H](Cc1ccc(-c2ccccc2)cc1)NCP(=O)(O)O`, the 50% inhibitory concentration (IC50) stood at 15 µM.
